According to article PMC8305651 (International Journal of Molecular Sciences, 2021):

Target: wild-type PA-Nter (Influenza A virus, UniProt C3W5S0, DEL51-57/DEL61-72/E59G)
Type: biochemical, influenza A/California/07/2009 (H1N1)

O=c1cc(-c2ccc(O)c(O)c2)oc2c([C@@H]3O[C@H](CO)[C@@H](O)[C@H](O)[C@H]3O)c(O)cc(O)c12 [orientin]
inhibition of endonuclease activity, gel-based assay (qualitative): higher inhibitory potency than luteolin
